These results are taken from US7683057B2, “Kinase inhibitor compounds” (Tyrogenex, Inc., priority 2007, dated 2010).

In the first assay the test system is AMPK (r). Nature of the assay: AMPK Biochemical Assay. On the set-up: species or system rat. The following applies: compared with sunitinib. On the procedure:
The compounds are assayed for biochemical activity essentially according to the following procedure. In a final reaction volume of 25 μl, AMPK (r) (5-10 mU) is incubated with 32 mM HEPES pH7.4, 0.65 mM DTT, 0.012% Brij-35, 200 μM AMP, 200 μM AMARAASAAALARRR, 10 mM MgAcetate and [(γ-33P-ATP] (specific activity approx. 500 cpm/pmol, concentration as required). The reaction is initiated by the addition of the MgATP mix. After incubation for 40 minutes at room temperature, the reaction is stopped by the addition of 5 μl of a 3% phosphoric acid solution. 10 μl of the reaction is then spotted onto a P30 filtermat and washed three times for 5 minutes in 75 mM phosphoric acid and once in methanol prior to drying and scintillation counting.
For `Cc1[nH]c(/C=C2\C(=O)Nc3ccc(F)cc32)c(C)c1C(=O)NC1CS(=O)(=O)CC1O` (stereo not drawn) [Example 17, 5-[5-Fluoro-2-oxo-1,2-dihydro-indol-(3Z)-ylidenemethyl]-2,4-dimethyl-1H-pyrrole-3-carboxylic acid (4-hydroxy-1,1-dioxo-tetrahydro-thiophen-3-yl)-amide], the AMPK inhibitory activities result was “significantly less AMPK inhibitory activities than sunitinib”.
On the same count and under the same terms, the value for `Cc1[nH]c(/C=C2\C(=O)Nc3ccc(F)cc32)c(C)c1C(=O)NC1CCN(C(=O)CO)CC1` [Example 22, 5-[5-Fluoro-2-oxo-1,2-dihydro-indol-(3Z)-ylidenemethyl]-2,4-dimethyl-1H-pyrrole-3-carboxylic acid [1-(2-hydroxy-acetyl)-piperidin-4-yl]-amide] was “significantly less AMPK inhibitory activities than sunitinib”; that for `Cc1[nH]c(/C=C2\C(=O)Nc3ccc(F)cc32)c(C)c1C(=O)N[C@H]1CCNC1=O` [Example 25, 5-[5-Fluoro-2-oxo-1,2-dihydro-indol-(3Z)-ylidenemethyl]-2,4-dimethyl-1H-pyrrole-3-carboxylic acid ((S)-2-oxo-pyrrolidin-3-yl)-amide] was “significantly less AMPK inhibitory activities than sunitinib”.
As to `Cc1[nH]c(/C=C2\C(=O)Nc3ccc(F)cc32)c(C)c1C(=O)N[C@H]1CCN(C(=O)C(=O)N(C)C)C1` [Example 29, 5-[5-Fluoro-2-oxo-1,2-dihydro-indol-(3Z)-ylidenemethyl]-2,4-dimethyl-1H-pyrrole-3-carboxylic acid ((S)-1-dimethylaminooxalyl-pyrrolidin-3-yl)-amide], the AMPK inhibitory activities result is “significantly less AMPK inhibitory activities than sunitinib”.
Same read-out and setting: for `Cc1[nH]c(/C=C2\C(=O)Nc3ccc(F)cc32)c(C)c1C(=O)N[C@H]1CC[C@@H](C(=O)N2CCOCC2)CC1` [Example 30, 5-[5-Fluoro-2-oxo-1,2-dihydro-indol-(3Z)-ylidenemethyl]-2,4-dimethyl-1H-pyrrole-3-carboxylic acid [4-(morpholine-4-carbonyl)-cyclohexyl]-amide] the value was “significantly less AMPK inhibitory activities than sunitinib”.
On the same count and under the same terms, the value for `Cc1[nH]c(/C=C2\C(=O)Nc3ccc(F)cc32)c(C)c1C(=O)N[C@H]1CC[C@@H](C(=O)N2CCCC2)CC1` [Example 31, 5-[5-Fluoro-2-oxo-1,2-dihydro-indol-(3Z)-ylidenemethyl]-2,4-dimethyl-1H-pyrrole-3-carboxylic acid [4-(pyrrolidine-1-carbonyl)-cyclohexyl]-amide] was “significantly less AMPK inhibitory activities than sunitinib”; that for `Cc1[nH]c(/C=C2\C(=O)Nc3ccc(F)cc32)c(C)c1C(=O)N[C@@H]1CCC[C@@H]1C(=O)N1CCCC1` [Example 36, 5-[5-Fluoro-2-oxo-1,2-dihydro-indol-(3Z)-ylidenemethyl]-2,4-dimethyl-1H-pyrrole-3-carboxylic acid [(1R,2S)-2-(pyrrolidine-1-carbonyl)-cyclopentyl]-amide] was “significantly less AMPK inhibitory activities than sunitinib”; that for `Cc1[nH]c(/C=C2\C(=O)Nc3ccc(F)cc32)c(C)c1C(=O)N[C@@H]1CON(C2CCOCC2)C1=O` [Example 48, 5-[5-Fluoro-2-oxo-1,2-dihydro-indol-(3Z)-ylidenemethyl]-2,4-dimethyl-1H-pyrrole-3-carboxylic acid [(R)-3-oxo-2-(tetrahydro-pyran-4-yl)-isoxazolidin-4-yl]-amide] was “significantly less AMPK inhibitory activities than sunitinib”.

For a further assay, the system named is AMPK.
Assay: not given
The following applies: proteomic study, literature; cited from earlier work.
Take `Cc1[nH]c(/C=C2\C(=O)Nc3ccccc32)c(C)c1CCC(=O)O` [SU6668]: the “inhibition of AMPK” value was “inhibits”.
